Measured values as given in patent US9932637B2, “Genetic polymorphisms associated with cardiovascular disorders and drug response, methods of detection and uses thereof” (CELERA CORPORATION, priority 2003, dated 2018).

Test system: patients with prior myocardial infarction (CARE study)
Test: CARE trial: pravastatin vs placebo, recurrent MI (RMI), overall and by ABCA1/NPC1/HSPG2 genotype pattern
Type: in vivo, human
Text: In order to identify genetic markers associated with acute coronary events (e.g. MI, stroke, unstable angina, congestive heart failure, etc.) or response to statin treatment for the prevention of coronary events, samples from the Cholesterol and Recurrent Events (CARE) study (a randomized multicentral double-blinded trial on secondary prevention of acute coronary events with pravastatin) (Sacks et al., 1991, Am. J. Cardiol. 68: 1436-1446) were genotyped. A well-documented myocardial infarction (MI) was one of the enrollment criteria for entry into the CARE study. Patients were enrolled in the CARE trial from 80 participating study centers. […] Patients were randomized to receive either 40 mg of pravastatin once daily or a matching placebo. The primary endpoint of the trial was death from coronary heart disease and the median duration of follow-up was 5.0 years (range, 4.0 to 6.2 years). […] Secondary endpoints of other related cardiovascular or metabolic disease events, and changes in clinical variables were also recorded in pravastatin-treated and placebo groups. All individuals included in the study had signed a written informed consent form and the study protocol was approved by the respective Institutional Review Boards (IRBs).
For genotyping SNPs in CARE patient samples, DNA was extracted from blood samples using conventional DNA extraction methods such as the QIA-amp kit from Qiagen. Genotypes were obtained on an ABI PRISM® 7900HT Sequence Detection PCR system (Applied Biosystems, Foster City, Calif.) by kinetic allele-specific PCR, similar to the method described by Germer et al. (Germer S., Holland M. J., Higuchi R. 2000, Genome Res. 10: 258-266).
The genotype data generated from the DNA of patients who participated in the CARE study was analyzed to determine the effect that pravastatin treatment had on the occurrence of RMI in patients with each of the potential genotypes (low risk, protective or high risk, non-protective) for the ABCA1 gene, the NPC1 gene and the […] gene independently.
The effect of pravastatin treatment on the occurrence of RMI in patients with each of the potential genotypes (protective, low risk genotype or non-protective, high risk genotype) for each of the ABCA1 gene, NPC1 gene, and HSPG2 gene alone, and combinations with the other two genes thereof are presented in Table 17.
This is a 50% reduction in risk over a 5 year period for RMI. […] This is an 80% reduction in risk over a 5 year period for RMI.

[1] = Pattern 0, pravastatin vs placebo
[2] = Pattern 2, pravastatin vs placebo
[3] = Pattern 3, pravastatin vs placebo

## CC[C@H](C)C(=O)O[C@H]1C[C@H](O)C=C2C=C[C@H](C)[C@H](CC[C@@H](O)C[C@@H](O)CC(=O)O)[C@H]21 [pravastatin]
All, pravastatin arm
  No RMI (number of patients): 1367
  RMI (number of patients): 106
  Risk (of RMI): 0.072
All, pravastatin vs placebo
  RDStatin: 0.023
  RRStatin: 0.76
CARE patients with pattern 0 genotypes receiving pravastatin
  5 year risk of a RMI: 7.9%
CARE patients with pattern 2 genotypes receiving pravastatin
  5 year risk of a RMI: 6.8%
CARE patients with pattern 3 genotype receiving pravastatin
  5 year risk of a RMI: 4.6%
CARE, all patients
  reduction in risk for RMI in treatment vs. placebo groups: 25%
CARE, all patients who received pravastatin 40 mg once daily
  5 year risk of having a recurrent MI (RMI): 7.2%
CARE, all patients, pravastatin vs placebo
  Cox Proportional Hazard Ratio (HR age-adjusted) for RMI: 0.75
High risk ABCA1 genotype
  Age-adjusted pravastatin effect on RMI, RR: 0.9567
High risk HSPG2 genotype
  Age-adjusted pravastatin effect on RMI, RR: 0.8097
High risk NPC1 genotype
  Age-adjusted pravastatin effect on RMI, RR: 1.0824
High risk, non-protective genotypes (ABCA1, NPC1, HSPG2)
  Age-adjusted pravastatin effect on RMI, RR: 1.7175
Low risk ABCA1, NPC1 and HSPG2 (pattern 3 genotype)
  Age-adjusted pravastatin effect on RMI, RR: 0.2399
Low risk ABCA1 and HSPG2 only
  Age-adjusted pravastatin effect on RMI, RR: 1.0054
Low risk ABCA1 and NPC1 only (pattern 2 genotype)
  Age-adjusted pravastatin effect on RMI, RR: 0.5258
Low risk ABCA1 genotype
  Age-adjusted pravastatin effect on RMI, RR: 0.5883
Low risk HSPG2 genotype
  Age-adjusted pravastatin effect on RMI, RR: 0.3934
Low risk NPC1 and HSPG2 only
  Age-adjusted pravastatin effect on RMI, RR: 0.2964
Low risk NPC1 genotype
  Age-adjusted pravastatin effect on RMI, RR: 0.5938
Low risk, protective ABCA1 only
  Age-adjusted pravastatin effect on RMI, RR: 0.8765
Low risk, protective HSPG2 only
  Age-adjusted pravastatin effect on RMI, RR: 0.2487
Low risk, protective NPC1 only
  Age-adjusted pravastatin effect on RMI, RR: 0.8954
Pattern 0, pravastatin arm
  No RMI (number of patients): 906
  RMI (number of patients): 78
  Risk (of RMI): 0.079
[1]
  RDStatin: 0.001
  RRStatin: 0.98
Pattern 2, pravastatin arm
  No RMI (number of patients): 342
  RMI (number of patients): 25
  Risk (of RMI): 0.068
[2]
  RDStatin: 0.057
  RRStatin: 0.55
Pattern 3, pravastatin arm
  No RMI (number of patients): 62
  RMI (number of patients): 3
  Risk (of RMI): 0.046
[3]
  RDStatin: 0.147
  RRStatin: 0.24
Pattern 2 genotypes
  HR for RMI, pravastatin vs no statin: 0.53
  reduction in risk over a 5 year period for RMI: 50%
Pattern 3 genotype
  HR for RMI, pravastatin vs no statin: 0.2
  reduction in risk over a 5 year period for RMI: 80%
